In article PMC8026785, “The pharmacokinetics of [^18F]UCB-H revisited in the healthy non-human primate brain” (EJNMMI Research, 2021):
“And” between values parts separate entries of the source, which are not always exact repeats. Equal entries are not always repeated.

Target: T1, SV2A (Macaca fascicularis, UniProt Q4R4X3)
T1 construct: The current study evaluates [^18F]UCB-H pharmacokinetics in healthy NHPs; from tissue; host or cells: brain of living healthy cynomolgus monkeys (in vivo PET)
Assay: Brain PET kinetic modelling (1TCM, 2TCM, 2TCM-c, Logan), test-retest
Type: in vivo, cynomolgus monkeys (Macaca fascicularis)
Procedure: All four non-human primates (NHP) underwent a 2-h (2 h) test and retest PET scan; two NHP underwent an additional 4-h (4 h) retest PET scan. Three NHP underwent one 4-h (4 h) displacement PET scan. Arterial blood sampling was performed during test and retest scans with PET imaging spaced by at least 3 weeks between each scan. To this end, the femoral artery opposite to the saphenous vein used for radioligand injection was cannulated. For the 2-h (2 h) scans, we collected in total 28 blood samples of 1 mL: 16 samples during the first 5 min followed by […] every 5 min and […] every 10 min. For the 4 h scans, we collected an additional 6 samples every 20 min during the last two hours (34 samples in total). Larger samples (2 – 3 mL) were collected at 5, 15, 30, 60, 90, 120 min (2 h) and at 180, 240 min (4 h) for metabolite analysis. Displacement of [^18F]UCB-H was done by intravenous (IV) administration 90 min after [^18F]UCB-H injection of a bolus of 30 mg/kg LEV, or of 80 µg/kg (≈250 nmol/kg) or 5 mg/kg (≈15 µmol/kg) of cold [^19F]-UCB-H. Full experimental design of all NHP is outlined in Additional file 1: Table 1.
PET imaging was performed on the microPET FOCUS220 (Siemens) under standard anesthesia and monitoring procedures. Data acquisition started with the IV bolus injection of [^18F]UCB-H (32.9 ± 1.0 MBq/kg, 0.35 ± 0.07 µg/kg). Dynamic PET images were reconstructed using standard OSEM-2D algorithms while correcting for radioactive decay, scatter, attenuation and detectors inhomogeneity, which were measured prior to PET scanning using respectively ^57Co and ^68Ge external sources.
PET image analysis was performed using PMOD software version 3.8 (PMOD Technologies Ltd., Zurich, Suisse). After individual co-registration of PET-MR images, a cynomolgus atlas published by Ballanger and coworkers was normalized to PET images to extract time activity curves in different brain regions. Volumes of interest (VOI) were cerebral white matter (16.7 cm^3), striatum (0.24 cm^3), thalamus (0.89 cm^3), cerebellum (3.83 cm^3), frontal—(2.50 cm^3), parietal—(5.35 cm^3), and temporal (8.22 cm^3) cortex, and whole brain (72.2 cm^3) as a composite region of all regions in the atlas. [^18F]UCB-H pharmacokinetics were evaluated by analyzing the time activity curves of the test- and retest scans using 1- and 2-tissue compartment models (unconstrained and constrained with global K1/k2 coupled fit across all regions, further referred to as 2TCM and 2TCM-c), and Logan graphical analysis with a fixed t* at 60 min [33] using the arterial plasma input function corrected for radio-metabolites to derive the volume of distribution in each region. Percentage standard error (%SE) was estimated from the theoretical parameter covariance matrix. Only reliable estimates (%SE less than 25%) were included in the current analyses. For the three drug studies, percent displacement of the total activity in the whole brain was estimated relative to an average baseline constructed from the two 4 h baseline studies. Briefly, Standardized Uptake Value (SUV) time activity curves (TACs) were calculated for the two baseline and the three displacement studies. Then, each curve was normalized to the SUV at t = 90 min, corresponding to the timeframe immediately before the administration of the drugs in the displacement studies. Baseline curves were averaged and the percent displacement of total activity was calculated as (baseline-displacement)/baseline at a given time post drug administration (see “Results”).
Statistical analysis was performed using R software (version 3.3.1.). Plasma, intact parent fraction and time activity curves were statistically compared between subjects using a one-factor variance analysis. Absolute Test–Retest variability (aTRV) of PET quantification parameters was calculated as ABS(test—retest) / AVERAGE(test, retest). […]

[1] = White Matter, Retest, individual NHP
[2] = White Matter, Test, individual NHP

T1 sequence (Q4R4X3 whole entry): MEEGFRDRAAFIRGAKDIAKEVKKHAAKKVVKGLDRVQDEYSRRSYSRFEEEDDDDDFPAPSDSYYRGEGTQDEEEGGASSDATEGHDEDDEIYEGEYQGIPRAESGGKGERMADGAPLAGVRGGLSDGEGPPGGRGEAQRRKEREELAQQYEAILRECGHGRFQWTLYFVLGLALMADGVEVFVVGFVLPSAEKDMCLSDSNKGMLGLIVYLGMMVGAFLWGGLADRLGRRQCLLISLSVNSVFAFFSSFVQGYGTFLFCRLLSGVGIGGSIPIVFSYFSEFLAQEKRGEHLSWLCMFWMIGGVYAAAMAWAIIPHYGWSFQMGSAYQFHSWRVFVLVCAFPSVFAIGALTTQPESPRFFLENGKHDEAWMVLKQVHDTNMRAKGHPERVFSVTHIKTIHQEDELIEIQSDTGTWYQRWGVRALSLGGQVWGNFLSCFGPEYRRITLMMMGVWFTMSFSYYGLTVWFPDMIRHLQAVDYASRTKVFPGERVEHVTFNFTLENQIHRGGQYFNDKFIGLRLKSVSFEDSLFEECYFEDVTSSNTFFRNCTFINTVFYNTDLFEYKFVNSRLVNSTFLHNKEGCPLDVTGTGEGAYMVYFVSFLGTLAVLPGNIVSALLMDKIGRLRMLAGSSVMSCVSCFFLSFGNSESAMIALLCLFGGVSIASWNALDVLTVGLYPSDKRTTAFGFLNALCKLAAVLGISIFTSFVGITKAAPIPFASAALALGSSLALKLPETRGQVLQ

## O=C1C[C@H](c2cc(F)c(F)c(F)c2)CN1Cc1ccncc1[18F] [[^18F]UCB-H]
Thalamus, Retest, individual NHP
  k3/k4 (2TCM-c): 0.64 and 2.00 and 0.90 and 0.33
Thalamus, Retest, mean
  VT (1TCM): 13.4 mL/cm^3
  VT (2TCM): 13.0 mL/cm^3
  VT (2TCM-c): 14.2 mL/cm^3
  VT (Logan (t* = 60)): 14.3 mL/cm^3
  k3/k4 (BPND) (2TCM-c): 0.97
Thalamus, Test, individual NHP
  K1 (2TCM): 0.21 ml/cm^3 /min and 0.24 ml/cm^3 /min and 0.45 ml/cm^3 /min and 0.53 ml/cm^3 /min
  K1 (2TCM-c): 0.20 ml/cm^3 /min and 0.25 ml/cm^3 /min and 0.48 ml/cm^3 /min and 0.54 ml/cm^3 /min
  K1/k2 (2TCM): 11.03 ml/cm^3 and 7.51 ml/cm^3 and 12.45 ml/cm^3 and 12.69 ml/cm^3
  K1/k2 (2TCM-c): 7.86 ml/cm^3 and 4.35 ml/cm^3 and 8.22 ml/cm^3 and 10.99 ml/cm^3
  VT (1TCM): 12.88 ml/cm^3 and 10.42 ml/cm^3 and 16.04 ml/cm^3 and 14.02 ml/cm^3
  VT (2TCM): 13.65 ml/cm^3 and 17.60 ml/cm^3
  VT (2TCM-c): 17.47 ml/cm^3 and 11.10 ml/cm^3 and 16.27 ml/cm^3 and 15.12 ml/cm^3
  VT (Logan): 14.58 ml/cm3 and 12.30 ml/cm3 and 17.00 ml/cm3 and 15.59 ml/cm3
  k3/k4 (2TCM): 0.82
  k3/k4 (2TCM-c): 1.00 and 1.56 and 1.18 and 0.38
Thalamus, Test, mean
  VT (1TCM): 13.3 mL/cm^3
  VT (2TCM): 15.6 mL/cm^3
  VT (2TCM-c): 15.0 mL/cm^3
  VT (Logan (t* = 60)): 14.9 mL/cm^3
  k3/k4 (BPND) (2TCM-c): 1.03
[1]
  K1 (2TCM): 0.29 ml/cm^3 /min and 0.49 ml/cm^3 /min and 0.32 ml/cm^3 /min and 0.35 ml/cm^3 /min
  K1 (2TCM-c): 0.30 ml/cm^3 /min and 0.44 ml/cm^3 /min and 0.32 ml/cm^3 /min and 0.35 ml/cm^3 /min
  K1/k2 (2TCM): 1.66 ml/cm^3 and 10.04 ml/cm^3 and 11.74 ml/cm^3
  K1/k2 (2TCM-c): 7.25 ml/cm^3 and 4.64 ml/cm^3 and 9.07 ml/cm^3 and 10.70 ml/cm^3
  VT (1TCM): 10.59 ml/cm^3 and 12.63 ml/cm^3 and 13.80 ml/cm^3 and 12.91 ml/cm^3
  VT (2TCM): 10.58 ml/cm^3 and 12.82 ml/cm^3 and 14.29 ml/cm^3
  VT (2TCM-c): 10.59 ml/cm^3 and 12.79 ml/cm^3 and 18.23 ml/cm^3 and 13.35 ml/cm^3
  VT (Logan): 11.11 ml/cm3 and 12.93 ml/cm3 and 16.97 ml/cm3 and 13.41 ml/cm3
  k3/k4 (2TCM): 6.72
  k3/k4 (2TCM-c): 0.46 and 1.76 and 0.27
[2]
  K1 (2TCM): 0.17 ml/cm^3 /min and 0.19 ml/cm^3 /min and 0.41 ml/cm^3 /min
  K1 (2TCM-c): 0.17 ml/cm^3 /min and 0.20 ml/cm^3 /min and 0.42 ml/cm^3 /min
  K1/k2 (2TCM): 9.57 ml/cm^3 and 6.00 ml/cm^3 and 9.76 ml/cm^3 and 11.24 ml/cm^3
  K1/k2 (2TCM-c): 7.86 ml/cm^3 and 4.35 ml/cm^3 and 8.22 ml/cm^3 and 10.99 ml/cm^3
  VT (1TCM): 12.00 ml/cm^3 and 9.44 ml/cm^3 and 14.88 ml/cm^3 and 12.88 ml/cm^3
  VT (2TCM): 11.61 ml/cm^3 and 16.36 ml/cm^3
  VT (2TCM-c): 15.44 ml/cm^3 and 10.47 ml/cm^3 and 15.61 ml/cm^3
  VT (Logan): 14.19 ml/cm3 and 11.20 ml/cm3 and 15.99 ml/cm3 and 14.37 ml/cm3
  k3/k4 (2TCM): 0.94
  k3/k4 (2TCM-c): 1.41 and 1.09
White matter
  ICC of 2TCM-c VT: 0.43
  ICC of Logan (t* = 60) VT: 0.62
  aTRV of 2TCM-c VT: 24%
  aTRV of Logan (t* = 60) VT: 13%
White matter, Retest, mean
  VT (1TCM): 12.5 mL/cm^3
  VT (2TCM): 12.6 mL/cm^3
  VT (2TCM-c): 13.7 mL/cm^3
  VT (Logan (t* = 60)): 13.6 mL/cm^3
  k3/k4 (BPND) (2TCM-c): 0.83
White matter, Test, mean
  VT (1TCM): 12.3 mL/cm^3
  VT (2TCM): 14.0 mL/cm^3
  VT (2TCM-c): 13.8 mL/cm^3
  VT (Logan (t* = 60)): 13.9 mL/cm^3
  k3/k4 (BPND) (2TCM-c): 1.25
Cynomolgus NHP
  BPND lower compared to [^11C]UCB-J and other [^18F]-labelled SV2A radioligands: 3 to fourfold lower
  VT lower compared to [^11C]UCB-J and other [^18F]-labelled SV2A radioligands: ~ 50%
Cynomolgus monkey, in vivo
  free fraction in tissue fND: 6.1 ± 1.3% and ~ 6%
Grey matter regions, 2TCM and 2TCM-c
  tissue influx parameter K1: 0.37 ± 0.01 mL/cm^3/min
Over all VOIs and animals
  average VND (K1/k2 from 2TCM-c): 7.89 ± 1.23 mL/cm^3
